Data as given in patent publication US11260241B2, “Method of treating multiple sclerosis” (Wisconsin Alumni Research Foundation, priority 2010, dated 2022).
Marks after values point to notes of the source that are not given here.

How the values were obtained:
Assay type in all cases: in vivo, C57BL/6 mice
[1] = Body weight monitoring (weight loss and toxicity)
Experimental: Beginning 10 days prior to immunization, mice were fed a purified 0.87% calcium diet delivering the indicated doses of either 25(OH)D3 or 1,25(OH)2D3. Treatment continued for the duration of the experiment. (A) Average clinical EAE scores were determined daily for vehicle, 25(OH)D3, and 1,25(OH)2D3-treated mice (n=15-17). (B) Mice were weighed weekly (±SD) throughout the study to monitor weight loss and toxicity. (C) Serum calcium levels (±SD) were determined at the end of the experiment using a clinical chemistry analyzer. (D) Serum 25(OH)D3 levels (±SD) were determined at the termination of the experiment. *P<0.05 compared to control group. Vitamin D toxicity is known to cause weight loss and a dramatic rise in serum calcium levels. To assess the effect of UV treatment on these parameters, mice were weighed at selected time intervals throughout the study, and serum calcium levels were determined at the termination of the experiment. […] Furthermore, there were no detected difference in serum calcium levels at either the end of the UVB-pretreatment period (data not shown) or at the termination of the experiment (FIG. 1C). In addition, serum 25(OH)D3 levels were determined both at the end of the UVB-pretreatment period and at the termination of the experiment. […] Corresponding levels of the 5.0 kJ/m^2 group remained elevated at the termination of the experiment.

EAE = EAE model of MS induced with MOG35-55, daily clinical scoring; settings: for Incidence: from 10 days before immunization, 25 days monitoring; for CDI / Day of Onset / Peak Severity: mean ± SD; for Peak Severity: score scale 0-5
[2] = Analysis of serum 25(OH)D3 levels (125I-radioimmunological assay); settings: dietary administration 10, 500, 1000 μg/kg per day; termination of the experiment
Experimental: Blood samples were collected at selected time points throughout the experiment. Red blood cells were removed through two successive centrifugation steps as described above. Serum 25(OH)D3 levels were determined using a ^125I-radioimmunological assay following the manufacturer's instructions (DiaSorin, Stillwater, Minn.). Samples above the range of the standard curve were diluted prior to analysis. Radioactivity was quantified using a Cobra 5002 gamma scintillation counter (PerkinElmer, Shelton, Conn.).

[3] = Analysis of serum calcium levels; settings: end of experiment, vehicle 10.1 mg/dl
Experimental: Blood samples were collected at the termination of the experiments and spun at 6000 rpm (2938 g) for 15 min, followed by a second spin at 14000 rpm (16883 g) for 1 min. Serum calcium levels were determined using the calcium L3K reagent (Genzyme Diagnostics, Charlottetown, PE Canada) and the ABX Pentra 400 clinical chemistry analyzer (Horiba-ABX Diagnostics, Irvine, Calif.).

[4] = 2.5 μg/kg per day in purified diet
[5] = 10 μg/kg per day in purified diet
[6] = 500 μg/kg per day in purified diet
[7] = 1000 μg/kg per day in purified diet

C=C1/C(=C\C=C2/CCC[C@]3(C)[C@@H]([C@H](C)CCCC(C)(C)O)CC[C@@H]23)C[C@@H](O)C[C@@H]1O [1,25(OH)2D3, 1α,25-dihydroxyvitamin D3]
Weight of the mice at the termination of the study ([1]; mouse, in vivo): significant decrease
Induction of EAE (EAE; 2.5 μg/kg per day): prevented the induction of EAE
Incidence (EAE; [4]): 35% (6/17)†
CDI (EAE; [4]): 4 ± 7
Day of Onset (EAE; [4]): 20 ± 3
Peak Severity (EAE; [4]): 2.3 ± 0.6
Clinical signs of EAE (EAE; pilot studies, 2.5 μg/kg per day (data not shown)): dramatic suppression

C=C1CC[C@H](O)C/C1=C/C=C1\CCC[C@]2(C)[C@@H]([C@H](C)CCCC(C)(C)O)CC[C@@H]12 [25(OH)D3, 25-hydroxyvitamin D3]
Serum 25(OH)D3 levels [2]: dose-dependent increase
Weight of the mice at the termination of the study ([1]; 1000 μg/kg per day in diet): significant decrease
Serum calcium levels ([3]; 10 μg/kg per day in diet): 9.9 mg/dL
Serum calcium levels ([3]; 500 μg/kg per day in diet): 12.9 mg/dL
Serum calcium levels ([3]; 1000 μg/kg per day in diet): 14.2 mg/dL
Effect on incidence, onset, severity, or progression of EAE (EAE; 10 μg/kg per day): no significant effect
Incidence (EAE; [5]): 88% (15/17)
CDI (EAE; [5]): 23 ± 16
Day of Onset (EAE; [5]): 14 ± 3
Peak Severity (EAE; [5]): 2.9 ± 0.9
Clinical EAE scores (EAE; 500 μg/kg per day): slight suppression
Incidence (EAE; [6]): 82% (14/17)
CDI (EAE; [6]): 19 ± 12
Day of Onset (EAE; [6]): 16 ± 4
Peak Severity (EAE; [6]): 2.7 ± 0.6
Suppression of EAE (EAE; 1000 μg/kg per day): modest suppression
Incidence (EAE; [7]): 82% (14/17)
CDI (EAE; [7]): 17 ± 11
Day of Onset (EAE; [7]): 16 ± 3
Peak Severity (EAE; [7]): 2.6 ± 0.6
